Reference: patent US9481654B2, “Compositions and methods for inhibition of the JAK pathway” (Rigel Pharmaceuticals, Inc., priority 2006, dated 2016)

Assays:
Type in all cases: cell-based
[1] = test system: IL-4 stimulated CD23 upregulation in human Ramos B cells (JAK-1/JAK-3, Stat-6); test: Assay for Ramos B-Cell Line Stimulated with IL-4 (CD23 upregulation, FACS); conditions: Table III Example 3
Procedure, shortened: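 Log-phase Ramos B cells (5×10^4 per point, RPMI with 5% serum) pre-incubated with compound or DMSO 1 h at 37° C, then stimulated with IL-4 at 50 units/mL final for 20-24 h. CD23 upregulation measured by staining and flow cytometry.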

[2] = test system: primary human T-cells (IL-2 induced proliferation, JAK-1/JAK-3, Stat-5); test: Primary Human T-Cell Proliferation Assay Stimulated with IL-2 (CellTiter-Glo); conditions: Table III Example 4
Procedure, shortened: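 Pre-activated peripheral-blood T-cells (TCR/CD28 stimulated, IL-2-maintained) were IL-2-depleted, then plated in Yssel's medium with 80 U/mL IL-2 in the cell suspension and compound in duplicate. Proliferation ran 72 h at 37 °C; viable cells quantified by CellTiter-Glo ATP luminescence, with IL-2-omitted wells as unstimulated control.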

[3] = test system: IFNγ induced ICAM-1 (CD54) up-regulation in U937 human monocytic cells (JAK/Stat pathway); test: U937 IFNγ ICAM1 FACS Assay; conditions: Table III Example 6, 10 ng/mL IFNγ, 18-24 hours
Procedure, shortened: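 U937 cells (100,000 per well) were pre-incubated 30 min at 37 °C with serially 3-fold diluted compound, then stimulated with IFNγ for 18–24 h. Surface ICAM-1 was measured by flow cytometry as the geometric mean of ICAM-APC on gated live cells. EC50 values were calculated from dose curves, with % live cells also recorded.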

| IC50 ([1]; Homo sapiens, Ramos) | IC50 ([3]; Homo sapiens, U-937) | Structure (SMILES) | IC50 [1] | IC50 [2] | IC50 [3] | IC50 ([2]; Homo sapiens, T-cell) |
| --- | --- | --- | --- | --- | --- | --- |
| – | – | CCCNS(=O)(=O)c1cccc(Nc2ncc(C)c(Nc3ccc(CNS(=O)(=O)C4CC4)cc3)n2)c1 [Compound I-178, N4-(4-cyclopropylsulfonylaminomethyl)phenyl-5-methyl-N2-(3-propylaminosulfonyl)phenyl-2,4-pyrimidinediamine] | 23 nM | 122 nM | 57.7 nM | – |
| – | – | Cc1ccc(Nc2ncc(F)c(Nc3ccc(CNS(=O)(=O)CC(F)(F)F)cc3)n2)cc1S(N)(=O)=O [Compound I-50, N2-(3-aminosulfonyl-4-methyl)phenyl-5-fluoro-N4-(4-trifluoroethylsulfonylaminomethyl)phenyl-2,4-pyrimidinediamine] | 34.3 nM | 62.7 nM | 548 nM | – |
| – | – | CCS(=O)(=O)NCCc1ccc(Nc2nc(Nc3ccc(C)c(S(N)(=O)=O)c3)ncc2C)cc1 [Compound I-40, N2-(3-aminosulfonyl-4-methyl)phenyl-N4-[4-(2-ethylsulfonylamino)ethyl]phenyl-5-methyl-2,4-pyrimidinediamine] | 68.1 nM | 92.4 nM | 341 nM | – |
| 141 nM | 908 nM | C#CCNS(=O)(=O)Cc1ccc(Nc2nc(Nc3cccc(S(N)(=O)=O)c3)ncc2F)cc1 [Compound I-4, N2-(3-Aminosulfonylphenyl)-5-fluoro-N4-[4-(prop-2-ynylaminosulfonylmethyl)phenyl]-2,4-pyrimidinediamine] | – | – | – | 109 nM |
| – | – | Cc1cnc(Nc2cccc(S(=O)(=O)NCC3CC3)c2)nc1Nc1ccc(CNS(=O)(=O)C2CC2)cc1 [Compound I-180, N2-(3-cyclopropylmethylaminosulfonyl)phenyl-N4-(4-cyclopropylsulfonylaminomethyl)phenyl-5-methyl-2,4-pyrimidinediamine] | 25.7 nM | 148 nM | 62.2 nM | – |
| – | – | Cc1ccc(Nc2ncc(Cl)c(Nc3ccc(CNS(=O)(=O)C4CC4)cc3)n2)cc1S(N)(=O)=O [Compound I-113, N2-(3-aminosulfonyl-4-methyl)phenyl-5-chloro-N4-(4-cyclopropylsulfonylaminomethyl)phenyl-2,4-pyrimidinediamine] | 18.6 nM | 17 nM | 47.1 nM | – |
| – | – | NS(=O)(=O)c1ccc(Nc2ncc(F)c(Nc3ccc(CNS(=O)(=O)C4CCCCC4)cc3)n2)cc1 [Compound I-71, N2-(4-aminosulfonyl)phenyl-N4-(4-cyclohexylsulfonylaminomethyl)phenyl-5-fluoro-2,4-pyrimidinediamine] | 120 nM | 132 nM | 401 nM | – |
| – | – | CCCN(Cc1ccc(Nc2nc(Nc3cccc(S(N)(=O)=O)c3)ncc2C)cc1)S(=O)(=O)C1CC1 [Compound I-80, N2-(3-aminosulfonyl)phenyl-N4-[4-(N-cyclopropylsulfonyl-N-propylamino)methyl]phenyl-5-methyl-2,4-pyrimidinediamine] | 37.1 nM | 46.3 nM | 143 nM | – |
| – | – | CCS(=O)(=O)N[C@@H](C)c1ccc(Nc2nc(Nc3cccc(S(N)(=O)=O)c3)ncc2F)cc1 [Compound I-27, N2-(3-aminosulfonyl)phenyl-N4-[4-(1S-ethylsulfonylamino)ethyl]phenyl-5-fluoro-2,4-pyrimidinediamine] | 118 nM | 144 nM | 1240 nM | – |
| – | – | Cc1ccc(Nc2ncc(C)c(Nc3ccc(CNS(=O)(=O)C4CC4)cc3)n2)cc1S(N)(=O)=O [Compound I-47, N2-(3-aminosulfonyl-4-methyl)phenyl-N4-(4-cyclopropylsulfonylaminomethyl)phenyl-5-methyl-2,4-pyrimidinediamine] | 28 nM | 36.2 nM | 104 nM | – |
| – | – | NS(=O)(=O)c1cccc(Nc2ncc(Cl)c(Nc3ccc(CNS(=O)(=O)C4CC4)cc3)n2)c1 [Compound I-114, N2-(3-aminosulfonyl)phenyl-5-chloro-N4-(4-cyclopropylsulfonylaminomethyl)phenyl-2,4-pyrimidinediamine] | 20.6 nM | 9.2 nM | 51.7 nM | – |
| – | – | CCCNS(=O)(=O)c1cc(Nc2ncc(C)c(Nc3ccc(CNS(=O)(=O)C4CC4)cc3)n2)ccc1C [Compound I-187, N4-(4-cyclopropylsulfonylaminomethyl)phenyl-5-methyl-N2-(4-methyl-3-propylaminosulfonyl)phenyl-2,4-pyrimidinediamine] | 72.4 nM | 101 nM | 174 nM | – |
| – | – | CCNS(=O)(=O)c1cccc(Nc2ncc(C)c(Nc3ccc(CNS(=O)(=O)C4CC4)cc3)n2)c1 [Compound I-176, N4-(4-cyclopropylsulfonylaminomethyl)phenyl-N2-(3-ethylaminosulfonyl)phenyl-5-methyl-2,4-pyrimidinediamine] | 7.98 nM | 64.5 nM | 48.4 nM | – |
| – | – | NS(=O)(=O)c1cccc(Nc2ncc(F)c(Nc3ccc(CNS(=O)(=O)CC(F)(F)F)cc3)n2)c1 [Compound I-49, N2-(3-aminosulfonyl)phenyl-5-fluoro-N4-(4-trifluoroethylsulfonylaminomethyl)phenyl-2,4-pyrimidinediamine] | 46.8 nM | 38.3 nM | 836 nM | – |
| – | – | CNS(=O)(=O)c1cccc(Nc2ncc(C)c(Nc3cccc(CNS(=O)(=O)C4CC4)c3)n2)c1 [Compound I-162, N4-(3-cyclopropylsulfonylaminomethyl)phenyl-5-methyl-N2-(3-methylaminosulfonyl)phenyl-2,4-pyrimidinediamine] | 57.9 nM | 46.3 nM | 155 nM | – |
| – | – | Cc1ccc(Nc2ncc(C)c(Nc3ccc(CNS(=O)(=O)C(C)C)cc3)n2)cc1S(N)(=O)=O [Compound I-117, N2-(3-aminosulfonyl-4-methyl)phenyl-N4-(4-isopropylsulfonylaminomethyl)phenyl-5-methyl-2,4-pyrimidinediamine] | 38.8 nM | 17.9 nM | 60.1 nM | – |
| – | – | NS(=O)(=O)c1ccc(Nc2ncc(F)c(Nc3ccc(CNS(=O)(=O)C4CCCC4)cc3)n2)cc1 [Compound I-68, N2-(4-aminosulfonyl)phenyl-N4-(4-cyclopentylsulfonylaminomethyl)phenyl-5-fluoro-2,4-pyrimidinediamine] | 94 nM | 102 nM | 289 nM | – |
| – | – | CCS(=O)(=O)NCCc1ccc(Nc2nc(Nc3ccc(C)c(S(N)(=O)=O)c3)ncc2F)cc1 [Compound I-16, N2-(3-aminosulfonyl-4-methyl)phenyl-N4-[4-(2-ethylsulfonylamino)ethyl]phenyl-5-fluoro-2,4-pyrimidinediamine] | 148 nM | 536 nM | 2280 nM | – |
| – | – | NS(=O)(=O)c1ccc(Nc2ncc(F)c(Nc3ccc(CNS(=O)(=O)CC(F)(F)F)cc3)n2)cc1 [Compound I-48, N2-(4-aminosulfonyl)phenyl-5-fluoro-N4-(4-trifluoroethylsulfonylaminomethyl)phenyl-2,4-pyrimidinediamine] | 263 nM | 758 nM | 3760 nM | – |
| – | – | Cc1ccc(Nc2ncc(F)c(Nc3ccc(CNS(=O)(=O)C4CCCC4)cc3)n2)cc1S(N)(=O)=O [Compound I-70, N2-(3-aminosulfonyl-4-methyl)phenyl-N4-(4-cyclopentylsulfonylaminomethyl)phenyl-5-fluoro-2,4-pyrimidinediamine] | 43 nM | 150 nM | 159 nM | – |
| – | – | COCCNS(=O)(=O)c1cc(Nc2ncc(C)c(Nc3ccc(CNS(=O)(=O)C4CC4)cc3)n2)ccc1C [Compound I-190, N4-(4-cyclopropylsulfonylaminomethyl)phenyl-N2-[3-(2-methoxyethyl)aminosulfonyl-4-methyl]phenyl-5-methyl-2,4-pyrimidinediamine] | 72.6 nM | 101 nM | 187 nM | – |
| – | – | CCS(=O)(=O)N[C@H](C)c1ccc(Nc2nc(Nc3cccc(S(N)(=O)=O)c3)ncc2F)cc1 [Compound I-30, N2-(3-aminosulfonyl)phenyl-N4-[4-(1R-ethylsulfonylamino)ethyl]phenyl-5-fluoro-2,4-pyrimidinediamine] | 74.3 nM | 153 nM | 1160 nM | – |
| – | – | Cc1ccc(Nc2ncc(F)c(Nc3cccc(CNS(=O)(=O)C4CC4)c3)n2)cc1S(N)(=O)=O [Compound I-34, N2-(3-aminosulfonyl-4-methyl)phenyl-N4-(3-cyclopropylsulfonylaminomethyl)phenyl-5-fluoro-2,4-pyrimidinediamine] | 184 nM | 484 nM | 1190 nM | – |
| – | – | Cc1ccc(Nc2ncc(F)c(Nc3ccc(CNS(=O)(=O)c4cccs4)cc3)n2)cc1S(N)(=O)=O [Compound I-37, N2-(3-aminosulfonyl-4-methyl)phenyl-5-fluoro-N4-[4-(thiophen-2-yl)sulfonylaminomethyl]phenyl-2,4-pyrimidinediamine] | 46.2 nM | 152 nM | 375 nM | – |
| – | – | Cc1cnc(Nc2cccc(S(=O)(=O)NC(C)C)c2)nc1Nc1ccc(CNS(=O)(=O)C2CC2)cc1 [Compound I-173, N4-(4-cyclopropylsulfonylaminomethyl)phenyl-N2-(3-isopropylaminosulfonyl)phenyl-5-methyl-2,4-pyrimidinediamine] | 34.8 nM | 42.4 nM | 109 nM | – |
